# In patent publication US11390604B2 (Hoffmann-La Roche Inc., priority 2019, dated 2022):
# Counter-ions that a name gives are not always drawn.
# Test system: Acinetobacter baumannii ATCC 17961
# Assay: Antimicrobial susceptibility testing: 90% growth inhibitory concentration (IC90) determination
# Assay type: cell-based
# Conditions: ATCC17961, Acinetobacter baumannii ATCC 17961, Iso-Sensitest broth, read-out: ATCC 17961 IC90
# Method in brief: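 Broth microdilution in Iso-Sensitest medium, twofold series (e.g. 50 to 0.097 μM final), ~5×10^5 CFU/ml inoculum, 35±2 °C. OD600 read every 20 min over 16 h. IC90 derived from growth inhibition during logarithmic phase.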
row,Structure (SMILES),IC90
1,"Cn1c(-c2cn(C3CC3)nc2C(F)(F)F)cnc1C(=O)Nc1ccc(C(=O)NCCCCCCN)c(Cl)c1 [Example 187, N-(4-((6-aminohexyl)carbamoyl)-3-chlorophenyl)-5-(1-cyclopropyl-3-(trifluoromethyl)-1H-pyrazol-4-yl)-1-methyl-1H-imidazole-2-carboxamide hydrochloride]",151 nM
2,"Cn1c(-c2cn(CC(F)F)nc2C(F)(F)F)cnc1C(=O)Nc1ccc(S(=O)(=O)N2CCNCC2)c(Cl)c1 [Example 188, N-(3-chloro-4-(piperazin-1-ylsulfonyl)phenyl)-5-(1-(2,2-difluoroethyl)-3-(trifluoromethyl)-1H-pyrazol-4-yl)-1-methyl-1H-imidazole-2-carboxamide hydrochloride]",152 nM
3,"CN(CCCCN)C(=O)c1ccc(NC(=O)c2ncc(-c3cn(C4CC4)nc3C(F)(F)F)n2C)cc1Cl [Example 190, N-(4-((4-aminobutyl)(methyl)carbamoyl)-3-chlorophenyl)-5-(1-cyclopropyl-3-(trifluoromethyl)-1H-pyrazol-4-yl)-1-methyl-1H-imidazole-2-carboxamide hydrochloride]",173 nM
4,"Cn1c(-c2cn(C3CC3)nc2C(F)(F)F)cnc1C(=O)Nc1ccc(C(=O)N2CCC(CCN)CC2)c(Cl)c1 [Example 191, N-(4-(4-(2-aminoethyl)piperidine-1-carbonyl)-3-chlorophenyl)-5-(1-cyclopropyl-3-(trifluoromethyl)-1H-pyrazol-4-yl)-1-methyl-1H-imidazole-2-carboxamide formate]",176 nM
5,"Cn1c(-c2cn(C3CC3(F)F)nc2C(F)(F)F)cnc1C(=O)Nc1ccc(C(=O)NC2CC3(CC(N)C3)C2)c(Cl)c1 (centres unmarked) [Example 193, N-(4-((6-aminospiro[3.3]heptan-2-yl)carbamoyl)-3-chlorophenyl)-5-(1-(2,2-difluorocyclopropyl)-3-(trifluoromethyl)-1H-pyrazol-4-yl)-1-methyl-1H-imidazole-2-carboxamide formate]",188 nM
6,"Cn1c(-c2cn(CC3CC3)nc2C(F)(F)F)cnc1C(=O)Nc1ccc(C(=O)N2CCN(C(=O)[C@H]3[C@@H]4CNC[C@@H]43)CC2)c(F)c1 [Example 194, rac-N-(4-(4-((1R,5S,6r)-3-azabicyclo[3.1.0]hexane-6-carbonyl)piperazine-1-carbonyl)-3-fluorophenyl)-5-(1-(cyclopropylmethyl)-3-(trifluoromethyl)-1H-pyrazol-4-yl)-1-methyl-1H-imidazole-2-carboxamide hydrochloride]",193 nM
7,"Cn1c(-c2cn(C3CC3)nc2C(F)(F)F)cnc1C(=O)Nc1ccc(C(=O)N2CC[C@H](CN)C2)c(Cl)c1 [Example 195, (R)-N-(4-(3-(aminomethyl)pyrrolidine-1-carbonyl)-3-chlorophenyl)-5-(1-cyclopropyl-3-(trifluoromethyl)-1H-pyrazol-4-yl)-1-methyl-1H-imidazole-2-carboxamide hydrochloride]",202 nM
8,"Cn1c(-c2cn(C3CC3(F)F)nc2C(F)(F)F)cnc1C(=O)Nc1ccc(C(=O)NCC2CC3CNCC3C2)c(Cl)c1 (centres unmarked) [Example 196, N-(3-chloro-4-(((octahydrocyclopenta[c]pyrrol-5-yl)methyl)carbamoyl)phenyl)-5-(1-(2,2-difluorocyclopropyl)-3-(trifluoromethyl)-1H-pyrazol-4-yl)-1-methyl-1H-imidazole-2-carboxamide formate]",202 nM
9,"Cn1c(-c2cn(C3CC3)nc2C(F)(F)F)cnc1C(=O)Nc1ccc(C(=O)N2CCC(C3CNC3)CC2)c(Cl)c1 [Example 197, N-(4-(4-(azetidin-3-yl)piperidine-1-carbonyl)-3-chlorophenyl)-5-(1-cyclopropyl-3-(trifluoromethyl)-1H-pyrazol-4-yl)-1-methyl-1H-imidazole-2-carboxamide formate]",202 nM
10,"Cn1c(-c2cn(CC(F)F)nc2C(F)(F)F)cnc1C(=O)Nc1ccc(S(=O)(=O)N2CCN(C(=O)[C@H]3C[C@H](O)CN3)CC2)c(Cl)c1 [Example 198, N-(3-chloro-4-((4-((2R,4S)-4-hydroxypyrrolidine-2-carbonyl)piperazin-1-yl)sulfonyl)phenyl)-5-(1-(2,2-difluoroethyl)-3-(trifluoromethyl)-1H-pyrazol-4-yl)-1-methyl-1H-imidazole-2-carboxamide hydrochloride]",207 nM
11,"C=C(C)Cn1cc(-c2cnc(C(=O)Nc3ccc(C(=O)NCCCCN)c(Cl)c3)n2C)c(C(F)(F)F)n1 [Example 199, N-(4-((4-aminobutyl)carbamoyl)-3-chlorophenyl)-1-methyl-5-(1-(2-methylallyl)-3-(trifluoromethyl)-1H-pyrazol-4-yl)-1H-imidazole-2-carboxamide tris(2,2,2-trifluoroacetate)]",213 nM
12,"Cn1c(-c2cn(C3CC3)nc2C(F)(F)F)cnc1C(=O)Nc1ccc(C(=O)N2CCN(C(=O)CN)CC2)c(Cl)c1 [Example 200, N-(3-chloro-4-(4-glycylpiperazine-1-carbonyl)phenyl)-5-(1-cyclopropyl-3-(trifluoromethyl)-1H-pyrazol-4-yl)-1-methyl-1H-imidazole-2-carboxamide hydrochloride]",215 nM
13,"Cn1c(-c2cn(C3CC3(F)F)nc2C(F)(F)F)cnc1C(=O)Nc1ccc(C(=O)N2CCC(F)(CN)CC2)c(Cl)c1 (centres unmarked) [Example 201, N-(4-(4-(aminomethyl)-4-fluoropiperidine-1-carbonyl)-3-chlorophenyl)-5-(1-(2,2-difluorocyclopropyl)-3-(trifluoromethyl)-1H-pyrazol-4-yl)-1-methyl-1H-imidazole-2-carboxamide formate]",216 nM
14,"Cn1c(-c2cn(CC3CCC3)nc2C(F)(F)F)cnc1C(=O)Nc1ccc(C(=O)N2CCN(C(=O)CN)CC2)c(Cl)c1 [Example 202, N-(3-chloro-4-(4-glycylpiperazine-1-carbonyl)phenyl)-5-(1-(cyclobutylmethyl)-3-(trifluoromethyl)-1H-pyrazol-4-yl)-1-methyl-1H-imidazole-2-carboxamide hydrochloride]",216 nM
15,"Cn1c(-c2cn(CC3CC3)nc2C(F)(F)F)cnc1C(=O)Nc1ccc(C(=O)N2CCN(C(=O)N[C@H]3C[C@@H](N)C3)CC2)c(Cl)c1 [Example 203, rac-N-((1s,3s)-3-aminocyclobutyl)-4-(2-chloro-4-(5-(1-(cyclopropylmethyl)-3-(trifluoromethyl)-1H-pyrazol-4-yl)-1-methyl-1H-imidazole-2-carboxamido)benzoyl)piperazine-1-carboxamide]",222 nM
16,"Cn1c(-c2cn(C3CC3(F)F)nc2C(F)(F)F)cnc1C(=O)Nc1ccc(N2CCCC2=O)cc1 (centres unmarked) [Example 204, 5-(1-(2,2-difluorocyclopropyl)-3-(trifluoromethyl)-1H-pyrazol-4-yl)-1-methyl-N-(4-(2-oxopyrrolidin-1-yl)phenyl)-1H-imidazole-2-carboxamide]",223 nM
17,"C=C(C)Cn1cc(-c2cnc(C(=O)Nc3ccc(C(=O)NCCCCCN)c(Cl)c3)n2C)c(C(F)(F)F)n1 [Example 205, N-(4-((5-aminopentyl)carbamoyl)-3-chlorophenyl)-1-methyl-5-(1-(2-methylallyl)-3-(trifluoromethyl)-1H-pyrazol-4-yl)-1H-imidazole-2-carboxamide hydrochloride]",224 nM
18,"Cn1c(-c2cn(CC3CC3)nc2C(F)(F)F)cnc1C(=O)Nc1ccc(C(=O)N2CCN(C(=O)[C@@H]3CC[C@@H](N)C3)CC2)c(Cl)c1 [Example 206, N-(4-(4-((1R,3R)-3-aminocyclopentane-1-carbonyl)piperazine-1-carbonyl)-3-chlorophenyl)-5-(1-(cyclopropylmethyl)-3-(trifluoromethyl)-1H-pyrazol-4-yl)-1-methyl-1H-imidazole-2-carboxamide]",224 nM
19,"Cn1c(-c2cn(C3CC3)nc2C(F)(F)F)cnc1C(=O)Nc1ccc(C(=O)N2CCC(CN)CC2)c(Cl)c1 [Example 207, N-(4-(4-(aminomethyl)piperidine-1-carbonyl)-3-chlorophenyl)-5-(1-cyclopropyl-3-(trifluoromethyl)-1H-pyrazol-4-yl)-1-methyl-1H-imidazole-2-carboxamide formate]",226 nM
20,"Cn1c(-c2cn(CC3CC3)nc2C(F)(F)F)cnc1C(=O)Nc1ccc(C(=O)N2CCN(C(=O)C3CNC3)CC2)c(Cl)c1 [Example 208, N-(4-(4-(azetidine-3-carbonyl)piperazine-1-carbonyl)-3-chlorophenyl)-5-(1-(cyclopropylmethyl)-3-(trifluoromethyl)-1H-pyrazol-4-yl)-1-methyl-1H-imidazole-2-carboxamide]",226 nM
21,"Cn1c(-c2cn(CC3CC3)nc2C(F)(F)F)cnc1C(=O)Nc1ccc(C(=O)N2CCN(C(=O)CN)CC2)c(Cl)c1 [Example 209, N-(3-chloro-4-(4-glycylpiperazine-1-carbonyl)phenyl)-5-(1-(cyclopropylmethyl)-3-(trifluoromethyl)-1H-pyrazol-4-yl)-1-methyl-1H-imidazole-2-carboxamide]",230 nM
22,"Cn1c(-c2cn(CC(F)F)nc2C(F)(F)F)cnc1C(=O)Nc1ccc(S(=O)(=O)N2CCN(C(=O)[C@H]3CC[C@@H](N)C3)CC2)c(Cl)c1 [Example 211, N-(4-((4-((1S,3R)-3-aminocyclopentane-1-carbonyl)piperazin-1-yl)sulfonyl)-3-chlorophenyl)-5-(1-(2,2-difluoroethyl)-3-(trifluoromethyl)-1H-pyrazol-4-yl)-1-methyl-1H-imidazole-2-carboxamide hydrochloride]",231 nM

# Same assay, conditions: Acinetobacter baumannii, ATCC17961, read-out: ATCC 17961 IC90, Acinetobacter baumannii ATCC 17961, Iso-Sensitest broth
row,Structure (SMILES),IC90
1,"Cn1c(-c2cn(C3CC4(CC4)C3)nc2C(F)(F)F)cnc1C(=O)Nc1ccc(C(=O)N2CCN(C(=O)N[C@H]3C[C@@H](N)C3)CC2)c(Cl)c1 [Example 210, rac-N-((1s,3s)-3-aminocyclobutyl)-4-(2-chloro-4-(1-methyl-5-(1-(spiro[2.3]hexan-5-yl)-3-(trifluoromethyl)-1H-pyrazol-4-yl)-1H-imidazole-2-carboxamido)benzoyl)piperazine-1-carboxamide hydrochloride]",231 nM
